In patent US20250066389A1, “HETEROCYCLIC AMIDES AND METHODS OF USING THE SAME” (Rgenta Therapeutics, Inc., priority 2021, published 2025) one finds activation and IC50 data, which are given here for 23 molecules.

The test system of this test is PMS1. Put plainly: Mini-Gene Reporter Assay—PMS1 (firefly luciferase mini-gene reporter transiently transfected into HEK293 cells). In kind it is cell-based. Conditions: Homo sapiens, mini-gene firefly luciferase reporter in HEK293 cells; for activation at 5 µM: read-out: PMS1 % Effect at 5 uM. From the text:
Example 76. Mini-Gene Reporter Assay—PMS1
Mini-gene reporter constructs for each target site can be constructed by first PCR amplifying the region-of-interest including the sequence of the alternatively skipped, sequences of the immediate upstream and downstream introns, and sequences of the immediate upstream and downstream exons. Then the 3′ end of the amplified sequence can be ligated to a firefly luciferase reporter gene and cloned into the pcDNA3.1 vector backbone. The final reporter construct can be transiently transfected into HEK293 cells using Lipofectamine 3000 transfection reagents. Compounds that can induce the inclusion of the skipped exon in the reporter construct would increase the reporter firefly luciferase activity.
Test compounds may be diluted in duplicates and dispensed into an assay plate. Transient mini-gene reporter cell line stock is resuspended and dispensed into the assay plate. Assay plates are then centrifuged and incubated. A luciferase reagent (e.g. ONE-Glo firefly luciferase reagent from Promega®) may be added to the assay plate and the luminescence (RLU) signals recorded. EC50 values may be determined by curve fitting in Levenberg-Marquardt algorithm.
In Table D below, A indicates a IC50 (μM)<1 μM, B indicates a IC50 (μM) 1 μM to <10 μM, and C indicates a IC50 (μM) 10 μM to <50 μM. In Table D below, A indicates a >75% Effect at 5 μM μM. B indicates a 50 to <75% Effect at 5 μM μM, and C indicates a <50% Effect at 5 μM.

Where a name gives a salt, the structure may show the parent alone.

Consider `CCOc1cc2nn(C)cc2cc1C(=O)Nc1cnc(NCC2CNC(C)C2)nc1` (centres unmarked) [Compound 413], for which the activation at 5 µM was less than 50%. Still for that read-out and setting: the result for `CCOc1cc2nn(C)cc2cc1C(=O)Nc1cnc(N2C3CCCC2CNC3)cn1` [Compound 314] reads less than 50%; that for `CCOc1cn2nc(C)cc2cc1C(=O)Nc1cnc(N2CCC(NCC3CC3)CC2)cn1` [Compound 517], greater than 75%. As to `CCOc1cn2nc(C)cc2cc1C(=O)Nc1cnc(N2CCC(N)CC2)nc1` [Compound 597], the activation at 5 µM was less than 50%. With `CCOc1cc2nn(C)cc2cc1C(=O)Nc1cnc(N2CCC(N)C2)cn1` (centres unmarked) [Compound 372], the activation at 5 µM was greater than 75%. On the same count and under the same terms, the value for `CCOc1cn2nc(C)cc2cc1C(=O)Nc1cnc(NC2CCN(C(=O)CCCNC)CC2)cn1` [Compound 513] was less than 50%. Turning to `CCOc1cc2nc(C)cn2cc1C(=O)Nc1ccc(N2CC3(CCNCC3)C2)nn1` [Compound 289], the IC50 was in the range of 1 to 10 µM.

Regarding `CCOc1cc2nn(C)cc2cc1C(=O)Nc1cnc(NCC2CCCCNC2)nc1` (centres unmarked) [Compound 428], the activation at 5 µM is less than 50%. Turning to `CCOc1cn2nc(C)cc2cc1C(=O)Nc1cnc(N2CCCC(CCN)C2)cn1` (centres unmarked) [Compound 544], the activation at 5 µM was less than 50%. Same read-out and setting: the value for `COCCNC1CCN(c2ccc(NC(=O)c3cn4cc(C)nc4cc3OC)c(F)c2)CC1` [Compound 137, N-(2-fluoro-4-(4-((2-methoxyethyl)amino)piperidin-1-yl)phenyl)-7-methoxy-2-methylimidazo[1,2-a]pyridine-6-carboxamide] was 50 to 75%. Molecule `CCOc1cc2nc(C)cn2cc1C(=O)Nc1ccc(N2CCN(C)[C@@H](C)C2)nn1` [Compound 737, (S)—N-(6-(3,4-dimethylpiperazin-1-yl)pyridazin-3-yl)-7-ethoxy-2-methylimidazo[1,2-a]pyridine-6-carboxamide formate] showed an IC50 of 1 to 10 µM. With `CCOc1cc2nn(C)cc2cc1C(=O)Nc1cnc(NCC2CCCNC2)cn1` (centres unmarked) [Compound 378], the activation at 5 µM is less than 50%. On the same count and under the same terms, the value for `CCOc1cn2nc(C)cc2cc1C(=O)Nc1cnc(NC2CCNCC2)cn1` [Compound 559] was greater than 75%.

Take `COc1cc2nc(C)cn2cc1C(=O)Nc1cc(C)c(N2CCN[C@@H](C)C2)nn1` [Compound 302, 7-methoxy-2-methyl-N-{5-methyl-6-[(3S)-3-methylpiperazin-1-yl]pyridazin-3-yl}imidazo[1,2-a]pyridine-6-carboxamide]: the IC50 was less than 1 µM. `CCOc1cc2nn(C)cc2cc1C(=O)Nc1cnc(N2C[C@H]3CNC[C@H]3C2)cn1` [Compound 363]: the activation at 5 µM was greater than 75%. Still for that read-out and setting: the value for `COc1cc2nc(C)cn2cc1C(=O)Nc1ccc(N2CCC3(CCCN3)C2)cc1F` (centres unmarked) [Compound 146, N-(2-fluoro-4-(1,7-diazaspiro[4.4]nonan-7-yl)phenyl)-7-methoxy-2-methylimidazo[1,2-a]pyridine-6-carboxamide] was less than 50%; that for `CCOc1cc2nn(C)cc2cc1C(=O)Nc1cnc(N2CC(N)CC2C)nc1` (centres unmarked) [Compound 416] was 50 to 75%.

As for `CCOc1cc2nn(C)cc2cc1C(=O)Nc1cnc(N2CC(N)C(C)(C)C2)nc1` (centres unmarked) [Compound 422], the activation at 5 µM is less than 50%. In turn, `CCOc1cc2nc(C)cn2cc1C(=O)Nc1ccc(N2CC3C4CCC(NC4)C3C2)nn1` (centres unmarked) [Compound 235] registered an IC50 of 1 to 10 µM.

In the case of `CCOc1cc2nn(C)cc2cc1C(=O)Nc1cnc(N2CCCC2CNC)nc1` (centres unmarked) [Compound 437], the activation at 5 µM is less than 50%.

For `CCOc1cc2nn(C)cc2cc1C(=O)Nc1cnc(N2CCC(NC)CC2)nc1` [Compound 473], the activation at 5 µM is less than 50%.

The molecule `CCOc1cc2nc(C)cn2cc1C(=O)Nc1ccc(N2CCN[C@@H](C)C2)cc1F` [Compound 702, 7-ethoxy-N-2-fluoro-4-[(3S)-3-methylpiperazin-1-yl]phenyl-2-methylimidazo[1,2-a]pyridine-6-carboxamide] gave an IC50 of less than 1 µM. In the case of `CCOc1cn2nc(C)cc2cc1C(=O)Nc1cnc(N2CCC3(CC2)CNCCO3)nc1` [Compound 584], the activation at 5 µM was less than 50%.
